Results reported in patent US8263562B2, “Peptides for preventing or treating liver damage” (priority 2006, dated 2012).
Like-named read-outs stand apart in the source and are kept apart here.

Tests used:
[1] = tested on: D-aminogalactose-induced acute liver damage; assay: D-aminogalactose-induced acute liver damage of rats; assay type: in vivo, Wistar Rats
Text: Wistar Rats (body weight of each was 180 g˜220 g; half of them were male and the others were female; and they were purchased from Shanghai Slac Laboratory Animal, Inc.) were divided randomly into 6 groups as follows with 10 rats in each group: (1) the diammonium glycyrrhizinate injection group, injected with diammonium glycyrrhizinate; (2) the high dose group, immunized with Peptide A and adjuvant; (3) the medium dose group, immunized with Peptide A and adjuvant; (4) the low dose group, immunized with Peptide A and adjuvant; (5) the blank control group; and (6) the model group.
Rats in the high dose group, the medium dose group and the low dose group were immunized as follows: At Day 0, the first immunization was performed by the following process: 100 μl of Peptide A dissolved in physiological saline was mixed thoroughly with the equivalent volume of Freund's complete adjuvant, and then 0.2 ml of the resultant water-in-oil emulsion was administered via subcutaneous injection to each rat, wherein the dosage of Peptide A contained in the emulsion was 174 μg/kg rat body weight for the high dose group, 87 μg/kg rat body weight for the medium dose group, and 43.5 μg/kg rat body weight for the low dose group respectively. 14 days later, the second immunization was performed in the same dosage and manner as the first immunization except that, Freund's complete adjuvant was replaced by Freund's incomplete adjuvant. […]
At the 48th hour after intraperitoneally injecting D-aminogalactose, each rat was sacrificed by cervical dislocation, and blood was collected. After sera were isolated, according to the specification of the manufacturer, the activities of glutamic-pyruvic transaminase (SGPT) and glutamic-oxalacetic transaminase (SGOT) in sera were detected respectively by using Glutamic-pyruvic Transaminase Detection Kit (purchased from Nanjing Jiancheng Bioengineering Institute) and Glutamic-oxalacetic Transaminase Detection Kit (purchased from Nanjing Jiancheng Bioengineering Institute).

[2] = tested on: BCG vaccine and lipopolysaccharide-induced immunological liver damage; assay type: in vivo, Wistar Rats; conditions: for pathological condition of liver (score) versus model group: P<0.05
γ-IFN [3] = assay: Level of γ-IFN in sera of immunized mice by ELISA; assay type: in vivo, BALB/c Mice; conditions: first day after the fourth immunization
Method: (§1) BALB/c Mice, all of which are male, 6 week old, and purchased from the Laboratory Animal Center of Academy Of Military Medical Sciences, Beijing, were divided into 4 groups as follows with 5 mice in each group: (1) the control group; (2) the Peptide A group, immunized with Peptide A; (3) the Peptide B group, immunized with Peptide B; and (4) the Peptide C group, immunized with Peptide C.
(§2) 50 μl of the peptide (100 μg/μl) used in the corresponding group and 50 μl of Freund's complete adjuvant (GIBCOBRL Corp.) were mixed thoroughly with a microstirrer, and the mixture was injected into the claw pad of a mouse, thereby the first immunization was performed for each of the mice. 14 days later, booster immunization was performed in the same manner as the first immunization with 50 μl of the peptide (100 μg/μl) used in the corresponding group and 50 μl of Freund's complete adjuvant (GIBCOBRL Corp.). 14 days later, another booster immunization was performed in the same manner. 14 days later, boost immunization was performed by injecting 100 μg of the peptide dissolved in 200 μl PBS into the mouse intramuscularly. During the process of immunization, only the corresponding adjuvant and PBS were injected for the control group. At the first day after the fourth immunization, mice were sacrificed and sera were collected.
(§3) According to the specification of the manufacturer, the levels of cytokines (i.e., IL-4, IL-10, and γ-IFN) in sera of the above immunized mice were detected respectively by using IL-4 Quantikine ELASA Kit, IL-10 Quantikine ELASA Kit, and γ-IFN Quantikine ELASA Kit (all of which are purchased from R&D, Inc.).

[4] = tested on: sera of patients with HBV; assay: Indirect ELISA, reactivity of the peptides to sera of patients with Hepatitis B; assay type: binding, human; conditions: sera of 10 patients with HBV
Method: Sera of patients with Hepatitis B (HBV): obtained from inpatients with Hepatitis B in the Liberation Army 302 Hospital, who was positive for the surface antigen of Hepatitis B virus as assayed.
(§4) The reactivity of the individual peptide of the invention to sera was detected by standard indirect ELISA technology using Model DG3022 Enzyme-Linked Immunoassay Analyzer (purchased from Perkin Elmer Corporation). 10 μg of Peptide A, Peptide B, Peptide C, and Peptide Conjugate A were added respectively into the basic coating buffer (0.1 mol/L NaHCO3, 35 μl; 0.1 mol/L Na2CO3, 15 μl; H2O, 50 μl), and then transferred into the wells of polypropylene/ethylene microtiter plate, and placed at 4° C. overnight. After adding 120 μl of FCS-PBS, each well was blocked at 37° C. for 2 hours. Sera (dilution of 1:100) were then added to the wells, and incubated at 37° C. for 1 hour. Goat anti-human IgGs (dilution of 1:1000) (purchased from Sino-American Biotechnology Company, Beijing) were then added to the wells, and incubated at 37° C. for 1 hour. 50 μl of Solution A and Solution B (purchased from Beijing Kewei Reagent Company) were added to every well, placed in the dark for 5 min, and then the absorbance at 450 nm was measured.

IL-4 = assay: Level of IL-4 in sera of immunized mice by ELISA; assay type: in vivo, BALB/c Mice; conditions: first day after the fourth immunization
Method: as §1, §2, §3

γ-IFN [5] = assay: Effects of the peptide on γ-IFN of rats in vivo; set-up: species or system SD Rats; conditions: four immunizations
Text: SD Rats (body weight of each was 180 g˜220 g; half of them were male and the others were female; and they were purchased from the Animal Institute of Academy Of Military Medical Sciences) were divided randomly into 5 groups as follows with 10 rats in each group: (1) the blank control group; (2) the adjuvant control group; (3) the high dose group, immunized with Peptide A and adjuvant; (4) the low dose group, immunized with Peptide A and adjuvant; and (5) the peptide group, immunized with Peptide A only.
Rats in the high dose group and the low dose group were immunized as follows: At Day 0, the first immunization was performed by the following process: Peptide A dissolved in physiological saline was mixed thoroughly with the equivalent volume of Freund's complete adjuvant, and then 0.1 ml of the resultant water-in-oil emulsion was administered via subcutaneous injection to each rat, wherein the dosage of Peptide A contained in the emulsion was 50 μg/kg rat body weight for the high dose group and 25 μg/kg rat body weight for the low dose group respectively. […]
At the first day after the fourth immunization, rats from every group were sacrificed and splenocytes were collected. […] According to the specification of the manufacturer, the level of γ-IFN in sera of the above immunized rats was detected by using γ-IFN ELASA Quantikine ELASA Kit (purchased from R&D, Inc.).

[6] = tested on: Sera of Patients with HCV (anti-HCV antibody-positive sera); assay: Indirect ELISA, reactivity of the peptides to anti-HCV antibody-positive sera; assay type: binding, human; conditions: for reactivity to sera of patients with HCV compared to sera of patients with HBV and healthy donors: X^2-test; for Percentage of Positive Cases (%) / The Number of Positive Cases: anti-HCV antibody-positive sera of 30 patients, sera dilution 1:100, 10 μg peptide coated
Method: Anti-HCV antibody-positive sera: randomly obtained from inpatients infected with HCV in the Liberation Army 302 Hospital from 2000 to 2001.
as §4

[7] = tested on: tetrachloromethane-induced liver damage; assay: Tetrachloromethane-induced liver damage of mice; assay type: in vivo, BALB/c mice
Method: At the first before the first immunization, 0.05 ml CCl4 (available from Shanghai Linfen Chemical Reagent Co., Ltd.) was administered via subcutaneous injection to each mouse of all groups other than the blank control group; and the equivalent volume of physiological saline was injected for the blank control group.
Mice in the high dose group, the medium dose group and the low dose group were immunized as follows: the first immunization was performed by the following process: 1000 of Peptide A dissolved in physiological saline was mixed thoroughly with the equivalent volume of Freund's complete adjuvant, and then 0.2 ml of the resultant water-in-oil emulsion was administered via subcutaneous injection to each mouse, wherein the dosage of Peptide A contained in the emulsion was 250 μg/kg mouse body weight for the high dose group, 125 μg/kg mouse body weight for the medium dose group, and 62.5 μg/kg mouse body weight for the low dose group respectively. 14 days later, the second immunization was performed in the same dosage and manner as the first immunization except that, Freund's complete adjuvant was replaced by Freund's incomplete adjuvant. 14 days later, the third immunization was performed in the same dosage and manner as the first immunization except that, Freund's complete adjuvant was replaced by Freund's incomplete adjuvant. 14 days later, the fourth immunization was performed by the following process: 0.1 ml of Peptide A dissolved in physiological saline was administered without any adjuvants via intraperitoneal injection to each rat, wherein the dosage of Peptide A was 250 μg/kg mouse body weight for the high dose group, 125 μg/kg mouse body weight for the medium dose group, and 62.5 μg/kg mouse body weight for the low dose group respectively.
At the days of immunization for the high dose group, the medium dose group and the low dose group, starting at Day 0, the corresponding physiological saline was injected into each rat of the model group and the blank control group, for up to four times; meanwhile, the corresponding adjuvant and physiological saline were injected for the adjuvant control group, for up to four times.
At the first day before the fourth immunization, 0.05 ml CCl4 was administered via subcutaneous injection to each mouse of all groups other than the blank control group; and the equivalent volume of physiological saline was injected for the blank control group. At the second day after the fourth immunization, all of mice were sacrificed.
Just before sacrificing all mice, each rat was weighed, and then sacrificed by cervical dislocation. Then Blood was collected, before sera were isolated.

IL-10 = assay: Level of IL-10 in sera of immunized mice by ELISA; assay type: in vivo, BALB/c Mice; conditions: first day after the fourth immunization
Method: as §1, §2, §3

sera of healthy donors = assay: Indirect ELISA, reactivity of the peptides to control sera of healthy donors; assay type: binding, human; conditions: sera of 10 healthy donors
Method: Control sera: obtained from healthy blood donors, who had normal blood indexes in each assay.
as §4

[8] = 13.5 mg/kg intraperitoneal, every day for 7 days
[9] = high, medium, low dosage (174, 87, 43.5 μg/kg) with adjuvant, four immunizations, 48 h after D-aminogalactose 600 mg/kg
[10] = high, medium, low dosage (174, 87, 43.5 μg/kg) without adjuvants, subcutaneous, four immunizations, 12 h after LPS
[11] = high, medium, low dosage (250, 125, 62.5 μg/kg) with adjuvant, four immunizations, CCl4 subcutaneous

Row | Compound | γ-IFN(pg/ml serum) (γ-IFN [3]) | reactivity in ELISA Assay to sera of patients with HBV [4] | IL-4(pg/ml serum) (IL-4) | reactivity to sera of patients with HCV compared to sera of patients with HBV and healthy donors [6] | Percentage of Positive Cases (%) [6] [%] | The Number of Positive Cases [6] | IL-10(pg/ml serum) (IL-10) | reactivity in ELISA Assay to sera of healthy donors (sera of healthy donors) | other results
1 | CC1(C)[C@@H](O[C@H]2O[C@H](C(=O)O)[C@@H](O)[C@H](O)[C@H]2O[C@@H]2O[C@H](C(=O)O)[C@@H](O)[C@H](O)[C@H]2O)CC[C@]2(C)[C@H]3C(=O)C=C4[C@@H]5C[C@@](C)(C(=O)O)CC[C@]5(C)CC[C@@]4(C)[C@]3(C)CC[C@@H]12.N.N [diammonium glycyrrhizinate injection, diammonium glycyrrhizinate, reference compound] | – | – | – | – | – | – | – | – | protective effect on acute liver damage of rats (SGPT, SGOT) [1, 8]: significant protective effect; protective effect on liver damage of rats (SGPT, SGOT) [2, 8]: no significant protective effect; protective effect on liver damage of rats (pathological condition score) [2, 8]: no significant protective effect
2 | GQTYTSG [Peptide A] | 23.46 ± 5.9 | negative | 29.64 ± 4.9 | significantly react | 43 | 13 | 27.94 ± 6.4 | negative | level of glutamic-oxalacetic transaminase (SGOT) in sera versus model group [1, 9]: significant decrease; level of glutamic-pyruvic transaminase (SGPT) in sera versus model group [1, 9]: significant decrease; pathological condition of liver (score) versus model group ([2]; high and medium dosage (174, 87 μg/kg) without any adjuvants): significant alleviation; level of glutamic-oxalacetic transaminase (SGOT) in sera versus model group [2, 10]: significant decrease; level of glutamic-pyruvic transaminase (SGPT) in sera versus model group [2, 10]: significant decrease; pathological condition of liver (score) versus model group ([2]; low dosage (43.5 μg/kg) with adjuvant): significant alleviation; protective effect on acute immunological liver damage (SGPT, SGOT) ([2]; low dose & adjuvant group, 43.5 μg/kg): protective effect; level of γ-IFN, Peptide A only with no adjuvant, versus same dosage of Peptide A and adjuvant (γ-IFN [5]; 50 μg/kg subcutaneous): even higher; γ-IFN in sera of the immunized rats compared to both of the control groups (γ-IFN [5]; Peptide A 50 or 25 μg/kg with adjuvant, or 50 μg/kg without adjuvant, FIG. 2): significant increase; tetrachloromethane-induced hepatomegaly of mice ([7]; 250 μg/kg mouse body weight): significant reduction; pathological conditions of the liver tissues (score) versus model group ([7]; high dose group, 250 μg/kg with adjuvant): alleviated significantly; level of glutamic-oxalacetic transaminase (SGOT) in sera versus model group [7, 11]: significant decrease; level of glutamic-pyruvic transaminase (SGPT) in sera versus model group [7, 11]: significant decrease
3 | GQTYTSGA [Peptide B] | 28.46 ± 5.9 | negative | 30.64 ± 4.9 | significantly react | 50 | 15 | 27.94 ± 6.4 | negative | –
4 | GQTYTSGG [Peptide C] | 24.81 ± 5.8 | negative | 31.22 ± 5.0 | significantly react | 47 | 14 | 26.926 ± 5.8 | negative | –
